# Measured values: US8426420B2, “Heterocyclic pyrazole-carboxamidesas P2Y12 antagonists” (Sanofi, priority 2007, dated 2013)
# What was measured:
# [1] = test system: human platelet rich plasma; assay: Inhibition of human platelet aggregation, 96-well assay; type: cell-based; settings: Homo sapiens, Platelet, 20 min
# How it was run: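 ADP-induced aggregation read as 650 nm absorbance every minute for 20 min at 37 °C, with shaking between reads. PRP (~3×E8 platelets/ml, diluted with PPP, ACD-A blood from healthy volunteers) was exposed to compound for 5 min before adding a 40 μM ADP stock (15 μl into 150 μl).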
# [2] = target: human P2Y12 receptor (Homo sapiens, UniProt Q9H244); assay: Human P2Y12 recombinant cell membrane binding assay with 33P 2MeS-ADP; settings: competition against 33P 2MeS-ADP, membranes of CHO cells with recombinant human P2Y12 receptor
# Chain of human P2Y12 receptor (Q9H244 whole entry): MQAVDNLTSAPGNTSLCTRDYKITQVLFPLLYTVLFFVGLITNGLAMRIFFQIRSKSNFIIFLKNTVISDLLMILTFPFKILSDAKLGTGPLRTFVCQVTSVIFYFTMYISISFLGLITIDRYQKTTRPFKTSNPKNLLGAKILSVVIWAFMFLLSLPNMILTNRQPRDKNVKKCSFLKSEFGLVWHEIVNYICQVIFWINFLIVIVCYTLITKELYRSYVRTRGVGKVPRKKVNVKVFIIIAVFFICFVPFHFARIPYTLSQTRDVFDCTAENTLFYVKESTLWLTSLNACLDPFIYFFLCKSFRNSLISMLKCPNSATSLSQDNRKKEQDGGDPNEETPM
# How it was run: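 CHO membranes expressing human P2Y12 (20 μg/ml stock) preincubated 15 min at RT with compound in HEPES pH 7.4 buffer, then 33P 2MeS-ADP (1.61 nM working solution) added for 20 min at RT. Bound label filtered and counted; four-point, five-fold series from 10 μM final, triplicate, four-parameter fit.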
Compound,IC50 [1] [nM],IC50 [2] [nM]
"CCOC(=O)N1CCN(C(=O)[C@H](CCNC(=O)OC)NC(=O)c2cc(OCC(=O)N3CCC[C@H]3C(=O)NC3CCC3)n(-c3ccccc3)n2)CC1 [Example 93, 4-[(S)-2-({5-[2-((S)-2-Cyclobutylcarbamoyl-pyrrolidin-1-yl)-2-oxo-ethoxy]-1-phenyl-1H-pyrazole-3-carbonyl}-amino)-4-methoxycarbonylamino-butyryl]-piperazine-1-carboxylic acid ethyl ester]",590,108
"CCOC(=O)N1CCN(C(=O)[C@H](CCNC(=O)C2CC2)NC(=O)c2cc(OCC(=O)N3CCC[C@H]3C(=O)NC3CCC3)n(-c3ccccc3)n2)CC1 [Example 95, 4-[(S)-2-({5-[2-((S)-2-Cyclobutylcarbamoyl-pyrrolidin-1-yl)-2-oxo-ethoxy]-1-phenyl-1H-pyrazole-3-carbonyl}-amino)-4-(cyclopropanecarbonyl-amino)-butyryl]-piperazine-1-carboxylic acid ethyl ester]",260,76
"CCOC(=O)C(=O)NCC[C@H](NC(=O)c1cc(OCC(=O)N2CCC[C@H]2C(=O)NC2CCC2)n(-c2ccccc2)n1)C(=O)N1CCN(C(=O)OCC)CC1 [Example 96, 4-[(S)-2-({5-[2-((S)-2-Cyclobutylcarbamoyl-pyrrolidin-1-yl)-2-oxo-ethoxy]-1-phenyl-1H-pyrazole-3-carbonyl}-amino)-4-(ethoxyoxalyl-amino)-butyryl]-piperazine-1-carboxylic acid ethyl ester]",670,108
"COc1cccc(N2CCN(C(=O)[C@H](CCC(=O)O)NC(=O)c3cc(OCC(=O)N4CCC[C@H]4C(=O)NC4CCC4)n(-c4ccccc4)n3)CC2)c1 [Example 101, (S)-4-({5-[2-((S)-2-Cyclobutylcarbamoyl-pyrrolidin-1-yl)-2-oxo-ethoxy]-1-phenyl-1H-pyrazole-3-carbonyl}-amino)-5-[4-(3-methoxy-phenyl)-piperazin-1-yl]-5-oxo-pentanoic acid]",790,77
"O=C(O)CC[C@H](NC(=O)c1cc(OCC(=O)N2CCC[C@H]2C(=O)NC2CCC2)n(-c2ccccc2)n1)C(=O)N1CCC(C(=O)c2ccccc2)CC1 [Example 106, (S)-5-(4-Benzoyl-piperidin-1-yl)-4-({5-[2-((S)-2-cyclobutylcarbamoyl-pyrrolidin-1-yl)-2-oxo-ethoxy]-1-phenyl-1H-pyrazole-3-carbonyl}-amino)-5-oxo-pentanoic acid]",1330,104
"CCOC(=O)CC[C@H](NC(=O)c1cc(OCC(=O)N2CCC[C@H]2C(=O)NC2CCC2)n(-c2ccccc2)n1)C(=O)N1CCN(C(=O)OCC)CC1 [Example 127, 4-[(S)-2-({5-[2-((S)-2-Cyclobutylcarbamoyl-pyrrolidin-1-yl)-2-oxo-ethoxy]-1-phenyl-1H-pyrazole-3-carbonyl}-amino)-4-ethoxycarbonyl-butyryl]-piperazine-1-carboxylic acid ethyl ester]",440,37
"CCOC(=O)N1CCN(C(=O)[C@H](CCC(=O)OCC2CC2)NC(=O)c2cc(OCC(=O)N3CCC[C@H]3C(=O)NC3CCC3)n(-c3ccccc3)n2)CC1 [Example 128, 4-[(S)-2-({5-[2-((S)-2-Cyclobutylcarbamoyl-pyrrolidin-1-yl)-2-oxo-ethoxy]-1-phenyl-1H-pyrazole-3-carbonyl}-amino)-4-cyclopropylmethoxycarbonyl-butyryl]-piperazine-1-carboxylic acid ethyl ester]",690,43
"CCOC(=O)N1CCN(C(=O)[C@H](CCC(=O)OC2CCC2)NC(=O)c2cc(OCC(=O)N3CCC[C@H]3C(=O)NC3CCC3)n(-c3ccccc3)n2)CC1 [Example 131, 4-[(S)-2-({5-[2-((S)-2-Cyclobutylcarbamoyl-pyrrolidin-1-yl)-2-oxo-ethoxy]-1-phenyl-1H-pyrazole-3-carbonyl}-amino)-4-cyclobutoxycarbonyl-butyryl]-piperazine-1-carboxylic acid ethyl ester]",740,54
"CCOC(=O)N1CCN(C(=O)[C@H](CCC(=O)OCC(C)C)NC(=O)c2cc(OCC(=O)N3CCC[C@H]3C(=O)NC3CCC3)n(-c3ccccc3)n2)CC1 [Example 135, 4-[(S)-2-({5-[2-((S)-2-Cyclobutylcarbamoyl-pyrrolidin-1-yl)-2-oxo-ethoxy]-1-phenyl-1H-pyrazole-3-carbonyl}-amino)-4-isobutoxycarbonyl-butyryl]-piperazine-1-carboxylic acid ethyl ester]",660,60
"CCOC(=O)N1CCN(C(=O)[C@H](CCC(=O)OC)NC(=O)c2cc(OCC(=O)N3CCC[C@H]3C(=O)NC3CCC3)n(-c3ccccc3)n2)CC1 [Example 136, 4-[(S)-2-({5-[2-((S)-2-Cyclobutylcarbamoyl-pyrrolidin-1-yl)-2-oxo-ethoxy]-1-phenyl-1H-pyrazole-3-carbonyl}-amino)-4-methoxycarbonyl-butyryl]-piperazine-1-carboxylic acid ethyl ester]",260,39
"CCOC(=O)N1CCN(C(=O)[C@H](CCC(=O)OCC2CCCC2)NC(=O)c2cc(OCC(=O)N3CCC[C@H]3C(=O)NC3CCC3)n(-c3ccccc3)n2)CC1 [Example 138, 4-[(S)-2-({5-[2-((S)-2-Cyclobutylcarbamoyl-pyrrolidin-1-yl)-2-oxo-ethoxy]-1-phenyl-1H-pyrazole-3-carbonyl}-amino)-4-cyclopentylmethoxycarbonyl-butyryl]-piperazine-1-carboxylic acid ethyl ester]",1650,83
"CCOC(=O)N1CCN(C(=O)[C@H](CCC(=O)OCOC(=O)C(C)(C)C)NC(=O)c2cc(OCC(=O)N3CCC[C@H]3C(=O)NC3CCC3)n(-c3ccccc3)n2)CC1 [Example 139, 4-[(S)-2-({5-[2-((S)-2-Cyclobutylcarbamoyl-pyrrolidin-1-yl)-2-oxo-ethoxy]-1-phenyl-1H-pyrazole-3-carbonyl}-amino)-4-(2,2-dimethyl-propionyloxymethoxycarbonyl)-butyryl]-piperazine-1-carboxylic acid ethyl ester]",360,56

# The remaining lines, values ahead:
IC50 [1] [nM],IC50 [2] [nM],Compound
70,20,"CCOC(=O)N1CCN(C(=O)[C@H](CCC(=O)O)NC(=O)c2cc(OCC(=O)N3CCC[C@H]3C(=O)NC3CCC3)n(-c3ccccc3)n2)[C@H](C)C1 [Example 150, (R)-4-[(S)-4-Carboxy-2-({5-[2-((S)-2-cyclobutylcarbamoyl-pyrrolidin-1-yl)-2-oxo-ethoxy]-1-phenyl-1H-pyrazole-3-carbonyl}-amino)-butyryl]-3-methyl-piperazine-1-carboxylic acid ethyl ester]"
120,15,"O=C(O)CC[C@H](NC(=O)c1cc(OCC(=O)N2CCC[C@H]2C(=O)NC2CCC2)n(-c2ccccc2)n1)C(=O)N1CCN(C(=O)OCc2ccccc2)CC1 [Example 159, 4-[(S)-4-Carboxy-2-({5-[2-((S)-2-cyclobutylcarbamoyl-pyrrolidin-1-yl)-2-oxo-ethoxy]-1-phenyl-1H-pyrazole-3-carbonyl}-amino)-butyryl]-piperazine-1-carboxylic acid benzyl ester]"
240,33,"O=C(O)CC[C@H](NC(=O)c1cc(OCC(=O)N2CCC[C@H]2C(=O)NCC2CC2)n(-c2ccccc2)n1)C(=O)N1CCN(C(=O)OCc2ccccc2)CC1 [Example 161, 4-[(S)-4-Carboxy-2-({5-[2-((S)-2-(cyclopropylmethyl-carbamoyl)-pyrrolidin-1-yl)-2-oxo-ethoxy]-1-phenyl-1H-pyrazole-3-carbonyl}-amino)-butyryl]-piperazine-1-carboxylic acid benzyl ester]"
10,13,"O=C(O)CC[C@H](NC(=O)c1cc(OCC(=O)N2CCC[C@H]2C(=O)NC2CCC2)n(-c2ccccc2)n1)C(=O)N1CCN(C(=O)OC2CCC2)CC1 [Example 163, 4-[(S)-4-Carboxy-2-({5-[2-((S)-2-cyclobutylcarbamoyl-pyrrolidin-1-yl)-2-oxo-ethoxy]-1-phenyl-1H-pyrazole-3-carbonyl}-amino)-butyryl]-piperazine-1-carboxylic acid cyclobutyl ester]"
40,81,"CCOC(=O)N1CCN(C(=O)[C@H](CCC(=O)O)NC(=O)c2cc(OCC(=O)N3CC(F)(F)C[C@H]3C(=O)NC3CCC3)n(-c3ccccc3)n2)CC1 [Example 164, 4-[(S)-4-Carboxy-2-({5-[2-((S)-2-cyclobutylcarbamoyl-4,4-difluoro-pyrrolidin-1-yl)-2-oxo-ethoxy]-1-phenyl-1H-pyrazole-3-carbonyl}-amino)-butyryl]-piperazine-1-carboxylic acid ethyl ester]"
440,98,"CCOC(=O)N1CCN(C(=O)[C@H](CCNC(=O)C2CC2(F)F)NC(=O)c2cc(OCC(=O)N3CCC[C@H]3C(=O)NC3CCC3)n(-c3ccccc3)n2)CC1 (stereo partly drawn) [Example 187, 4-{(S)-2-({5-[2-((S)-2-Cyclobutylcarbamoyl-pyrrolidin-1-yl)-2-oxo-ethoxy]-1-phenyl-1H-pyrazole-3-carbonyl}-amino)-4-[(2,2-difluoro-cyclopropanecarbonyl)-amino]-butyryl}-piperazine-1-carboxylic acid ethyl ester]"
490,10,"CCOC(=O)N1CCN(C(=O)[C@H](CCNS(=O)(=O)C(F)(F)F)NC(=O)c2cc(OCC(=O)N3CCC[C@H]3C(=O)NC3CCC3)n(-c3ccccc3)n2)CC1 [Example 188, 4-[(S)-2-({5-[2-((S)-2-Cyclobutylcarbamoyl-pyrrolidin-1-yl)-2-oxo-ethoxy]-1-phenyl-1H-pyrazole-3-carbonyl}-amino)-4-trifluoromethanesulfonylamino-butyryl]-piperazine-1-carboxylic acid ethyl ester]"
